Measured values as given in ChEMBL document CHEMBL1129258, “Synthesis and structure-activity relationships of 2-pyridones: a novel series of potent DNA gyrase inhibitors as antibacterial agents” (J Med Chem, 1996).
Converted amounts (≈) assume the structure as drawn.

target: T1, DNA gyrase (Escherichia coli) (UniProt P0AES6+P0AES4); assay: In vitro antibacterial activity against gram-negative organism […] ATCC 13048; format: functional; details: Enterobacter aerogenes

Compound | MIC [µg/mL]
Cc1c(N2CC[C@@H](O)C2)c(F)cn2c(=O)c(C(=O)O)cc(C3CC3)c12 | 0.2 (≈ 0.577 µM)
Cc1c(N2CC[C@@]3(C[C@@H]3N)C2)c(F)cn2c(=O)c(C(=O)O)cc(C3CC3)c12 | 0.05 (≈ 0.135 µM)

target: T1, DNA gyrase (Escherichia coli); assay: In vitro antibacterial against gram-negative organism Escherichia coli JUHL; format: functional; details: Escherichia coli K-12

Compound | MIC [µg/mL]
Cc1c(N2CC[C@@H](O)C2)c(F)cn2c(=O)c(C(=O)O)cc(C3CC3)c12 | 0.1 (≈ 0.289 µM)
Cc1c(N2CC[C@@]3(C[C@@H]3N)C2)c(F)cn2c(=O)c(C(=O)O)cc(C3CC3)c12 | 0.01 (≈ 0.0269 µM)

target: T1, DNA gyrase (Escherichia coli); assay: In vitro antibacterial activity against gram-negative organism Klebsiella pneumoniae ATCC 8045; format: functional; details: not given

Compound | MIC [µg/mL]
Cc1c(N2CC[C@@H](O)C2)c(F)cn2c(=O)c(C(=O)O)cc(C3CC3)c12 | 0.02 (≈ 0.0577 µM)
Cc1c(N2CC[C@@]3(C[C@@H]3N)C2)c(F)cn2c(=O)c(C(=O)O)cc(C3CC3)c12 | 0.005 (≈ 0.0135 µM)

system: not listed separately; assay: In vivo efficacy against Pseudomonas aeruginosa 5007 after subcutaneous administration; format: functional; details: not given

Compound | ED50 [mg/kg]
Cc1c(N2C[C@@H]3CCN[C@@H]3C2)c(F)cn2c(=O)c(C(=O)O)cc(C3CC3)c12 (stereo in doubt; (S,S)45o) | 18

system: Pseudomonas aeruginosa; assay: In vivo efficacy against Pseudomonas aeruginosa 5007 by orally administered.; format: functional; details: not given

Compound | ED50 [mg/kg]
Cc1c(N2C[C@@H]3CCN[C@@H]3C2)c(F)cn2c(=O)c(C(=O)O)cc(C3CC3)c12 (stereo in doubt; (S,S)45o) | >50

target: T1, DNA gyrase (Escherichia coli); assay: In vitro antibacterial activity against gram-negative organism Prov. stuartii CMX-640; format: functional; details: Providencia stuartii

Compound | MIC [µg/mL]
Cc1c(N2CC[C@@H](O)C2)c(F)cn2c(=O)c(C(=O)O)cc(C3CC3)c12 | 0.78 (≈ 2.25 µM)
Cc1c(N2CC[C@@]3(C[C@@H]3N)C2)c(F)cn2c(=O)c(C(=O)O)cc(C3CC3)c12 | 0.39 (≈ 1.05 µM)

system: not listed separately; assay: (§1) In vitro antibacterial activity against gram-negative organism Pseudomonas aeruginosa 5007; format: functional; details: not given

Compound | MIC [µg/mL]
Cc1c(N2C[C@@H]3CCN[C@@H]3C2)c(F)cn2c(=O)c(C(=O)O)cc(C3CC3)c12 (stereo in doubt; (S,S)45o) | 0.2 (≈ 0.538 µM)

same assay, conditions: Pseudomonas aeruginosa; read-out: MIC

Compound | MIC [µg/mL]
Cc1c(N2CC[C@@H](O)C2)c(F)cn2c(=O)c(C(=O)O)cc(C3CC3)c12 | 0.78 (≈ 2.25 µM)

system: Pseudomonas aeruginosa; assay: as §1; format: functional; details: not given

Compound | MIC [µg/mL]
Cc1c(N2CC[C@@]3(C[C@@H]3N)C2)c(F)cn2c(=O)c(C(=O)O)cc(C3CC3)c12 | 0.39 (≈ 1.05 µM)

system: not listed separately; assay: In vitro antibacterial activity against gram-negative organism Pseudomonas aeruginosa DPHD-2862; format: functional; details: not given

Compound | MIC [µg/mL]
Cc1c(N2C[C@@H]3CCN[C@@H]3C2)c(F)cn2c(=O)c(C(=O)O)cc(C3CC3)c12 (stereo in doubt; (S,S)45o) | 3.1 (≈ 8.35 µM)

same assay, conditions: Pseudomonas aeruginosa; read-out: MIC

Compound | MIC [µg/mL]
Cc1c(N2CC[C@@H](O)C2)c(F)cn2c(=O)c(C(=O)O)cc(C3CC3)c12 | 25 (≈ 72.2 µM)
Cc1c(N2CC[C@@]3(C[C@@H]3N)C2)c(F)cn2c(=O)c(C(=O)O)cc(C3CC3)c12 | 3.1 (≈ 8.35 µM)

system: Staphylococcus aureus; assay: (§2) In vivo efficacy against Staphylococcus aureus NCTC-10649M after oral administration; format: functional; details: not given

Compound | ED50 [mg/kg]
Cc1c(N2CC[C@@]3(C[C@@H]3N)C2)c(F)cn2c(=O)c(C(=O)O)cc(C3CC3)c12 | 6.3

system: Streptococcus pneumoniae; assay: (§3) In vivo efficacy against Strep. administration; format: functional; details: not given

Compound | ED50 [mg/kg]
Cc1c(N2CC[C@@H](O)C2)c(F)cn2c(=O)c(C(=O)O)cc(C3CC3)c12 | > 2

target: T2, DNA gyrase (Staphylococcus aureus) (UniProt P0A0K8+P20831); assay: In vitro antibacterial activity against gram-positive organism Staphylococcus aureus 1775; format: functional; details: not given
T2 sequence (P0A0K8 2-644 limits assumed): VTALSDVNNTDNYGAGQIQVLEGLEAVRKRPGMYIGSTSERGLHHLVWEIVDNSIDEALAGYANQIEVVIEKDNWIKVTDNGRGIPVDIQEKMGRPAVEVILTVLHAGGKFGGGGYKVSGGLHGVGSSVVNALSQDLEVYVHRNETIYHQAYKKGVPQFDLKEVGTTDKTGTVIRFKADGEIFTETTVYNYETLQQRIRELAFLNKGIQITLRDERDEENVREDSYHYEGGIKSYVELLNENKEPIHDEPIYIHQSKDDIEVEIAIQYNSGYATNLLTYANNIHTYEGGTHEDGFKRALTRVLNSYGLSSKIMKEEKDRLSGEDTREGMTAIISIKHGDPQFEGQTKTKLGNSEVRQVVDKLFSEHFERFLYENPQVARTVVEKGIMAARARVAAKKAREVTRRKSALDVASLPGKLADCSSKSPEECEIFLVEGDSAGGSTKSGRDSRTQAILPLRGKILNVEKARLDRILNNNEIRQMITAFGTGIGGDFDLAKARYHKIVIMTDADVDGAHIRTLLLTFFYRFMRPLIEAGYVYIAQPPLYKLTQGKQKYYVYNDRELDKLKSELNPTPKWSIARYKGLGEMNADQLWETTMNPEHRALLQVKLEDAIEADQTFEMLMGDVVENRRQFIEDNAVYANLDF
T2 sequence (P20831 whole entry partner): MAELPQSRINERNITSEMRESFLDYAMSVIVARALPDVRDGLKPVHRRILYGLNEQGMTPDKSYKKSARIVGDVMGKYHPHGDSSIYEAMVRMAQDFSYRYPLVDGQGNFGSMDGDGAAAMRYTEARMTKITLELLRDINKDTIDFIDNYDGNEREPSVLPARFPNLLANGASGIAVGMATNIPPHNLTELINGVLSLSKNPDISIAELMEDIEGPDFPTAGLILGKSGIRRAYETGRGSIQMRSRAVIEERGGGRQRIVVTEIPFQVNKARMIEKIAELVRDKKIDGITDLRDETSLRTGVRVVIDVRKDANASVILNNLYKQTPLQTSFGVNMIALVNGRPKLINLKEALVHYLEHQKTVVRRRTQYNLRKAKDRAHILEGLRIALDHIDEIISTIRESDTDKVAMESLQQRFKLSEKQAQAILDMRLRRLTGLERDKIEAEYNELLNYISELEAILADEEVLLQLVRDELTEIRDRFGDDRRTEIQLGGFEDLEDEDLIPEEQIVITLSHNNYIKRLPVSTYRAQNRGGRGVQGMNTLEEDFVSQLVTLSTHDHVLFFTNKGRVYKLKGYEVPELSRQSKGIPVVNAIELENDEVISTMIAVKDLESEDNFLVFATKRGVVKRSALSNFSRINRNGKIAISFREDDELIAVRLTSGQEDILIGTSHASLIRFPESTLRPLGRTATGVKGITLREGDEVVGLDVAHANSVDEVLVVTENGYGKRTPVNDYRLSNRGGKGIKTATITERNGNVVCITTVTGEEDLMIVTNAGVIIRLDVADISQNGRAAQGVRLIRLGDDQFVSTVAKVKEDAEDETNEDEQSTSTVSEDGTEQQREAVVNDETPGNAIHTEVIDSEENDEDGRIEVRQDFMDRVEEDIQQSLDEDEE

Compound | MIC [µg/mL]
Cc1c(N2CC[C@@H](O)C2)c(F)cn2c(=O)c(C(=O)O)cc(C3CC3)c12 | 1.56 (≈ 4.5 µM)
Cc1c(N2CC[C@@]3(C[C@@H]3N)C2)c(F)cn2c(=O)c(C(=O)O)cc(C3CC3)c12 | 0.39 (≈ 1.05 µM)

target: T2, DNA gyrase (Staphylococcus aureus); assay: In vitro antibacterial activity against gram-positive organism Staphylococcus aureus ATCC 6538p; format: functional; details: not given

Compound | MIC [µg/mL]
Cc1c(N2CC[C@@H](O)C2)c(F)cn2c(=O)c(C(=O)O)cc(C3CC3)c12 | 0.02 (≈ 0.0577 µM)
Cc1c(N2CC[C@@]3(C[C@@H]3N)C2)c(F)cn2c(=O)c(C(=O)O)cc(C3CC3)c12 | 0.002 (≈ 0.00538 µM)

target: T2, DNA gyrase (Staphylococcus aureus); assay: In vitro antibacterial activity against gram-positive organism Staphylococcus aureus NCTC-10649M; format: functional; details: not given

Compound | MIC [µg/mL]
Cc1c(N2CC[C@@H](O)C2)c(F)cn2c(=O)c(C(=O)O)cc(C3CC3)c12 | 0.02 (≈ 0.0577 µM)
Cc1c(N2CC[C@@]3(C[C@@H]3N)C2)c(F)cn2c(=O)c(C(=O)O)cc(C3CC3)c12 | 0.02 (≈ 0.0538 µM)

system: Streptococcus equinus; assay: In vitro antibacterial activity against gram-positive organism Strep. bovis A-5169; format: functional; details: not given

Compound | MIC [µg/mL]
Cc1c(N2CC[C@@H](O)C2)c(F)cn2c(=O)c(C(=O)O)cc(C3CC3)c12 | 0.2 (≈ 0.577 µM)

system: Streptococcus pneumoniae; assay: In vivo efficacy against Strep. administered; format: functional; details: not given

Compound | ED50 [mg/kg]
Cc1c(N2C[C@@H]3CCN[C@@H]3C2)c(F)cn2c(=O)c(C(=O)O)cc(C3CC3)c12 (stereo in doubt; (S,S)45o) | 2.3

target: T2, DNA gyrase (Staphylococcus aureus); assay: as §2; format: functional, organism-based; details: not given

Compound | ED50 [mg/kg]
Cc1c(N2CC[C@@H](O)C2)c(F)cn2c(=O)c(C(=O)O)cc(C3CC3)c12 | 11.2

target: T2, DNA gyrase (Staphylococcus aureus); assay: In vivo efficacy against Staphylococcus aureus NCTC-10649M after subcutaneous administration; format: functional, organism-based; details: not given

Compound | ED50 [mg/kg]
Cc1c(N2CC[C@@H](O)C2)c(F)cn2c(=O)c(C(=O)O)cc(C3CC3)c12 | 6.1
Cc1c(N2CC[C@@]3(C[C@@H]3N)C2)c(F)cn2c(=O)c(C(=O)O)cc(C3CC3)c12 | 1.2

system: Streptococcus pyogenes; assay: In vitro antibacterial activity against gram-positive organism Streptococcus pyogenes EES61; format: functional; details: Streptococcus pyogenes; read-out: MIC

Compound | MIC [µg/mL]
Cc1c(N2CC[C@@]3(C[C@@H]3N)C2)c(F)cn2c(=O)c(C(=O)O)cc(C3CC3)c12 | 0.01 (≈ 0.0269 µM)

target: T1, DNA gyrase (Escherichia coli); assay: In vitro antibacterial activity against gram-positive organism Enterococcus faecium ATCC 8043; format: functional; details: not given

Compound | MIC [µg/mL]
Cc1c(N2CC[C@@H](O)C2)c(F)cn2c(=O)c(C(=O)O)cc(C3CC3)c12 | 0.2 (≈ 0.577 µM)
Cc1c(N2CC[C@@]3(C[C@@H]3N)C2)c(F)cn2c(=O)c(C(=O)O)cc(C3CC3)c12 | 0.05 (≈ 0.135 µM)

system: Streptococcus pneumoniae; assay: as §3; format: functional; details: not given

Compound | ED50 [mg/kg]
Cc1c(N2C[C@@H]3CCN[C@@H]3C2)c(F)cn2c(=O)c(C(=O)O)cc(C3CC3)c12 (stereo in doubt; (S,S)45o) | 11.2
